In patent US4140777A, “Cerebral vasodilating 6-substituted vincamines” (Enrico Corvi Mora, priority 1976, dated 1979):
Where a name gives a salt, the structure may show the parent alone.

How the values were obtained:
Assay type in all cases: in vivo
vertebral arteria = experiment: Variation of the hematic flow at the vertebral arteria after i.v. administration (cerebral vasodilating activity); conditions: anestetized dog, i.v. (femoral vein) 5 mg/kg, left vertebral arteria, electromagnetic flowmeters
Source text: The cerebral vasodilating activity was studied in the anestetized dog, by measuring, by means of Statham periarterial electromagnetic flowmeters, the hematic flow at the level of the vertebral arteria which, in such animal species, constitutes the greatest blood supply to the brain.
The results are reported in the TABLE as the percent variations of the flow measured at the level of the left vertebral arteria after the administration of the several compounds to be tested to groups of 4 animals for each compound. The results also confirm that the compounds of the invention are all endowed with a vasodilating activity at the level of the cerebral circulus. Such an action for some compounds is more relevant with respect to that of vincamine and of apovincamine.

[1] = Acute toxicity per intraperitoneal route (LD50, method of Litchfield and Wilcoxon; Gleason classification); conditions: in vivo, ip; Swiss male mouse, suspension in 1% carboxymethylcellulose, observation 8 days
Description: (§1) The acute toxicity was assessed in the mouse of the Swiss type, having an average body weight of 20 g and of male sex, groups of 5 animals being used, according to the method of Litchfield and Wilcoxon (observation time: 8 days). The compounds were administered as a suspension in 1% carboxymethylcellulose.
(§2) The acute toxicity was low for all the examined compounds, as confirmed by the following table, in which those of the vincamine HCl and of the apovincamine are also reported.
(§3) In fact, for all the compounds, the toxicity, when evaluated according to the method of Gleason, can be classified as light, modest or negligible.

mouse of the Swiss type = experiment: as above; conditions: Gleason toxicity class, mouse i.p.
Description: as §1, §2, §3

[2] = Absorption: hematic levels at different times from the oral administration; conditions: blood, 100 mg/kg expressed as vincamine and apovincamine, suspension in 5% carboxymethyl cellulose, chromatographic method, read-out: max. conc. time (converted)
Description: All the compounds have been orally administered at the dosage of 100 mg/kg, expressed as vincamine and apovincamine, in form of a suspension in a 5% carboxymethyl cellulose solution.
The absorption was determined by evaluating the hematic levels at the following times (minutes): 0, 30, 120, 240, 480, 10 hours and 12 hours, at which it was possible to assess the time, from the administration, of the maximum hematic concentration.
The vincamine and apovincamine concentrations were assessed by chromatographic method.
For the evaluation of the prolonged action the following criterium was adopted; as derivatives having a long-acting effect, there are considered those which, 120 minutes after the administration, show hematic levels higher than those obtained with vincamine and apovincamine.

Compound | Percent variations of the hematic flow at the vertebral arteria (vertebral arteria) | LD50 at 192 h [1] | Tox (Gleason) (mouse of the Swiss type) | Tmax [2]
CC[C@]12CCCN3CC(O)c4c(n(c5ccccc45)C(O)(C(=O)OC)C1)[C@@H]32 (some centres unmarked) [6-hydroxyvincamine] | +33.4% | 900 mg/kg | modest | –
CC[C@@]12C=C(C(=O)OC)n3c4c(c5ccccc53)C(=O)CN(CCC1)[C@H]42 [6-ketoapovincamine] | +29.2% | > 2000 mg/kg | – | –
CC[C@]12CCCN3CC(=O)c4c(n(c5ccccc45)C(O)(CO)C1)[C@@H]32 (some centres unmarked) [6-ketovincaminol] | +30.2% | 1500 mg/kg | light | –
CC[C@]12CCCN3CCc4c(n(c5ccccc45)[C@@](O)(C(=O)OC)C1)[C@@H]32 [Vincamine HCl, reference compound] | +24.1% | 800 mg/kg | modest | 20 min
CC[C@]12CCCN3CC(=O)c4c(n(c5ccccc45)C(=O)C1)[C@@H]32 [6-ketovincamone] | +30.2% | > 2000 mg/kg | – | –
CC[C@@]12C=C(C(=O)OC)n3c4c(c5ccccc53)CCN(CCC1)[C@H]42 [Apovincamine, reference compound] | +25.6% | > 2000 mg/kg | negligible | 60 min
CC[C@]12CCCN3CC(=O)c4c(n(c5ccccc45)[C@@](O)(C(=O)OC)C1)[C@@H]32 [6-ketovincamine] | +28.4% | > 2000 mg/kg | – | –
CC[C@]12CCCN3CC(=O)c4c(n(c5ccccc45)[C@](O)(C(=O)OC)C1)[C@@H]32 [6-keto-16-epivincamine] | +35.7% | > 2000 mg/kg | negligible | –
